The test system of assay [1] is BMMC (mouse bone marrow-derived mast cells). Kind of assay: Histamine release inhibitory activity in mouse mast cells (IgE-sensitized BMMC, DNP-HSA induced degranulation). The class given is cell-based. The following applies: 12.5 and 25 μg/mL test sample, 10 min incubation, DNP-HSA antigen 20 min; histamine in supernatant relative to control (distilled water); FIG. 2; compared with epigallocatechin-3-O-gallate and epigallocatechin-3-O-(3-O-methyl)gallate. As for the experimental part: FIG. 2 is a graph showing the histamine release inhibitory activity in mouse mast cells. In FIG. 2, numeral 1 denotes 12.5 μg/mL of epigallocatechin-3-O-gallate; numeral 2 denotes 25 μg/mL of epigallocatechin-3-O-gallate; numeral 3 denotes 12.5 μg/mL of epigallocatechin-3-O-(3-O-methyl)gallate: numeral 4 denotes 25 μg/mL of epigallocatechin-3-O-(3-O-methyl)gallate; numeral 5 denotes 12.5 μg/mL of epi(3-O-methyl)gallocatechin-3-O-(3,5-O-dimethyl)gallate; and numeral 6 denotes 25 μg/mL of epi(3-O-methyl)gallocatechin-3-O-(3,5-O-dimethyl)gallate.
The effect of epi(3-O-methyl)gallocatechin-3-O-(3,5-O-dimethyl)gallate was determined based on the histamine release inhibitory activity in mouse mast cells. Epigallocatechin-3-O-gallate and epigallocatechin-3-O-(3-O-methyl)gallate known to have stronger antiallergic activity than epigallocatechin-3-O-gallate were used as comparison substances. […] Then, DNP-HSA (antigen) was added thereto to induce degranulation (20 minutes), and the amount of histamine in the supernatant was measured by liquid chromatography. The antiallergic activity was evaluated based on the relative value with respect to the value for the control (distilled water). […]

The conditions of assay [2]: compared with EGCG; cited from earlier work.

Turning to `COc1cc([C@H]2Oc3cc(O)cc(O)c3C[C@H]2OC(=O)c2cc(OC)c(O)c(OC)c2)cc(O)c1O` [epi(3-O-methyl)gallocatechin-3-O-(3,5-O-dimethyl)gallate], the “histamine release inhibitory activity” value in assay [1] is on record as “stronger than those of the comparison substances”. For the compound `COc1c(O)cc(C(=O)O[C@@H]2Cc3c(O)cc(O)cc3O[C@@H]2c2cc(O)c(O)c(O)c2)cc1O` [epigallocatechin-3-O-(4-O-methyl)gallate], the antiallergic activity result in assay [2] was “stronger antiallergic activity than EGCG”.

“epigallocatechin-3-O-(3-O-methyl)gallate”: the antiallergic activity entry in assay [2] is on record as “stronger antiallergic activity than EGCG”.

Values taken from patent US20100324312A1, “NOVEL METHYLATED CATECHIN AND COMPOSITION CONTAINING THE SAME” (INCORPORATED ADMINSTRATIVE AGENCY NATIONAL AGRICULTURE AND …, priority 2007, published 2010).
